Laboratory results as given in publication PMC12647645, “Structural interactions of BWC0977 with Klebsiella pneumoniae topoisomerase IV and biochemical basis of its broad-spectrum activity” (Communications Biology, 2025).
≈ marks a conversion by molar mass, not a printed value. Where “and” joins values, the source holds several entries; their conditions need not be identical. Equal values may be shown once.

Assays:
[1] = target: K. pneumoniae fusion-truncated topoisomerase IV (ParE30-(Glu-Ser)-ParC55) (Klebsiella pneumoniae); assay: crystal structure; ternary complex of ParEC core dimer, 26-bp DNA duplex and BWC0977 (23 uM ParEC core: 28 uM dsDNA: 200 uM BWC0977); sitting-drop vapor diffusion at 20 °C, 17% PEG 3350, 0.1 M sodium formate, 100 mM Bis-Tris propane pH 8.5; 3.05 Å
K. pneumoniae = details: ref 6 (Hameed P et al., 2024); cited from earlier work
[2] = target: S. aureus topoisomerase IV (Staphylococcus aureus, UniProt P0C1S7+P0C1U9); assay: biochemical; details: source data Fig 2C; for Topo IV decatenation inhibition response: S. aureus topo IV
Protocol: (§1) Assays with P. aeruginosa topoisomerase IV (3 nM) were conducted in a similar buffer but with 50 mM HEPES-KOH (pH 7.9), 100 mM potassium glutamate, 6 mM magnesium acetate, 6 mM DTT, 1 mM ATP, 2 mM spermidine, and 50 μg/mL albumin. For S. aureus topoisomerase IV assay, the reactions contained 4 nM enzyme in an assay buffer composed of 50 mM Tris-HCl (pH 7.5), 5 mM MgCl₂, 5 mM DTT, 1.5 mM ATP, 350 mM potassium glutamate, and 0.05 mg/mL albumin. The procedures followed were consistent with those used in the supercoiling assays. Decatenated minicircles were resolved on 0.8% agarose gels, while the kDNA substrate remained in the wells. Gels were stained with 0.8 μg/mL ethidium bromide solution for 10 min, followed by destaining. DNA bands were visualized using a gel documentation system, and compound inhibition analysis was carried out using the same procedures described for the supercoiling assays.

[3] = target: P. aeruginosa topoisomerase IV (Pseudomonas aeruginosa, UniProt Q9HUJ8+Q9HUK1); assay: Topoisomerase IV decatenation assay, P. aeruginosa; assay type: biochemical; details: for Topo IV decatenation inhibition response: P. aeruginosa topo IV
Protocol: as §1, with “Topoisomerase IV decatenation reactions were performed using 2.5 nM E. coli enzyme and 60 ng kinetoplast DNA (kDNA) in an assay buffer containing 50 mM HEPES-KOH (pH 7.6), 100 mM potassium glutamate, 10 mM magnesium acetate, 10 mM DTT, 1 mM ATP, and 50 μg/mL albumin. Assays” for “Assays”

E. coli ATCC 25922 = assay: In vitro spontaneous resistance frequency; assay type: cell-based; details: 4× MIC
Protocol: (§2) Spontaneous resistance frequencies to BWC0977 were evaluated in E. coli ATCC 25922, P. aeruginosa ATCC 27853, and A. baumannii ATCC 19606. Mid-logarithmic phase cultures (~10^9 CFU/mL) were plated onto Luria-Bertani agar containing BWC0977 at 4×, 8×, and 16× the respective MICs. Plates were incubated at 37 °C for 24–36 h, and resistance frequencies were estimated by counting colony-forming units (CFUs) on the drug-containing plates. MICs of the isolated colonies were determined, and the gyrA, gyrB, parC, and parE genes were sequenced to assess for target-site mutations.

A. baumannii ATCC 19606 = assay: In vitro spontaneous resistance frequency; assay type: cell-based; details: colonies selected at 4× MIC of the same compound
Protocol: as §2

P. aeruginosa = test system: P. aeruginosa; parameters: method as in ref 6 (Hameed P et al., 2024); details: ref 6 (Hameed P et al., 2024); cited from earlier work
A. baumannii = test system: A. baumannii; parameters: method as in ref 6 (Hameed P et al., 2024); details: ref 6 (Hameed P et al., 2024); cited from earlier work
E. coli topoisomerase IV = target: T1, E. coli topoisomerase IV (Escherichia coli, UniProt P0AFI2+P20083); assay: biochemical; assay type: biochemical; details: E. coli topo IV, source data Fig 2A
T1 construct: purchased Inspiralis
T1 sequence (P20083 whole entry): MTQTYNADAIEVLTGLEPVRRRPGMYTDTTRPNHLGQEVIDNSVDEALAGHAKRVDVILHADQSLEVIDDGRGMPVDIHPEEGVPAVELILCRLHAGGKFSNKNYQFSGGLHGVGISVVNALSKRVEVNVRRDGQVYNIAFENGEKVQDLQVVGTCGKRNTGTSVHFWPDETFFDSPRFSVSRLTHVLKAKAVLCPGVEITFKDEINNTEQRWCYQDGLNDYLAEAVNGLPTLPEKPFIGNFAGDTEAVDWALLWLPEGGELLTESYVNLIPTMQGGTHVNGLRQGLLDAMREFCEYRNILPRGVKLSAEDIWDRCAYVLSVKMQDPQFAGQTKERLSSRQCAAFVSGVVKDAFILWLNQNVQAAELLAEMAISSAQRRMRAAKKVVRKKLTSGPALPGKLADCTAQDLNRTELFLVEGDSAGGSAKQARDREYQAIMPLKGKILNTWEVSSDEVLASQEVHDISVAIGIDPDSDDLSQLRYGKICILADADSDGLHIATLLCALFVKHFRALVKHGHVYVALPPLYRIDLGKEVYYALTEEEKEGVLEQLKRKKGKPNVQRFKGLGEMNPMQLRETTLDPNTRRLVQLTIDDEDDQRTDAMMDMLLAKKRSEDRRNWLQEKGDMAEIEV
T1 sequence (P0AFI2 whole entry): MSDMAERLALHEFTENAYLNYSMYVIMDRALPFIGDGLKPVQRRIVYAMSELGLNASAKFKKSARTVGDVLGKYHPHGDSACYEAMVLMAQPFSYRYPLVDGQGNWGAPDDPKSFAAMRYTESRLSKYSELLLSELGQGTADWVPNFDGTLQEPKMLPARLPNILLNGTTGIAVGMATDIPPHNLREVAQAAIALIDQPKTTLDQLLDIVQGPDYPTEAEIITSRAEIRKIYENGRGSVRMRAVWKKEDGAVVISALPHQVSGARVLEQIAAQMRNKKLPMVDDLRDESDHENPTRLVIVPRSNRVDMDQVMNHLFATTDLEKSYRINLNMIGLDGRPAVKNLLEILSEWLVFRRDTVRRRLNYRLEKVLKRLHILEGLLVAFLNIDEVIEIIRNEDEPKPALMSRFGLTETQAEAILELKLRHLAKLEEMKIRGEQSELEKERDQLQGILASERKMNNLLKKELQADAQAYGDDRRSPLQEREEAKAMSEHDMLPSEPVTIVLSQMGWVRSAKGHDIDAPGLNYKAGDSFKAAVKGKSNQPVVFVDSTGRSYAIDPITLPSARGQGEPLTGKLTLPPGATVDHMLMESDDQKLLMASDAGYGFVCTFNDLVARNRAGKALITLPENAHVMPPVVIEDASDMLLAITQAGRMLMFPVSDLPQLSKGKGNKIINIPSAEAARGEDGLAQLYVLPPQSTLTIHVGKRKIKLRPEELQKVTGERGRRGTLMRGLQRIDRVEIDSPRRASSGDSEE

[4] = target: ParEC core (ParE-ES-ParC fusion, topoisomerase IV) (Klebsiella pneumoniae, UniProt A6TE19 400-631+=ES+A6TE12:1-488, internal_change); assay: X-ray crystallography (3.05 Å); BWC0977 (one molecule intercalated between DNA bases +2 and +3); Crystallization conditions not in material; protein in 20 mM Tris-HCl pH 7.5, 100 mM NaCl, 2 mM TCEP (6 mg/mL); DNA in nuclease-free water; details: protein: recombinant; tags: C-terminal His6; chain copies: 2; blunt; self-complementary, 2 copies of the strand

Molecule: K. pneumoniae fusion-truncated topoisomerase IV (ParE30-(Glu-Ser)-ParC55) (enzyme)
- stoichiometry N [1]: 2

Molecule: O=C(O)c1cn(C2CC2)c2cc(N3CCNCC3)c(F)cc2c1=O [Ciprofloxacin, reference compound]
- MIC90 against diverse global isolates (K. pneumoniae): > 32 µg/mL
- Topo IV decatenation inhibition response ([2]; compound 0.823 μM, 0.823 µM): 25.54
- Topo IV decatenation inhibition response ([2]; compound 2.469 μM, 2.469 µM): 28.07
- Topo IV decatenation inhibition response ([2]; compound 7.407 μM, 7.407 µM): 38.66
- Topo IV decatenation inhibition response ([2]; compound 22.222 μM, 22.222 µM): 96.26
- Topo IV decatenation inhibition response ([2]; compound 66.67 μM, 66.67 µM): 92.59
- Topo IV decatenation inhibition response ([2]; compound 200 μM, 200 µM): 98.71
- inhibition at 0.823 µM ([2]; read-out: Topo IV decatenation inhibition response, S. aureus topo IV, compound 0.823 μM): 21.1%
- inhibition at 2.469 µM ([2]; read-out: Topo IV decatenation inhibition response, S. aureus topo IV, compound 2.469 μM): 31.3%
- inhibition at 7.407 µM ([2]; read-out: Topo IV decatenation inhibition response, S. aureus topo IV, compound 7.407 μM): 27.1%
- inhibition at 22.222 µM ([2]; read-out: Topo IV decatenation inhibition response, S. aureus topo IV, compound 22.222 μM): 99.1%
- inhibition at 66.67 µM ([2]; read-out: Topo IV decatenation inhibition response, S. aureus topo IV, compound 66.67 μM): 97.3%
- inhibition at 200 µM ([2]; read-out: Topo IV decatenation inhibition response, S. aureus topo IV, compound 200 μM): 99%
- IC50 [3]: 31.2 µM
- Topo IV decatenation inhibition response ([3]; compound 0.293 μM, source data Fig 2B, 0.293 µM): 3.42
- Topo IV decatenation inhibition response ([3]; compound 9.375 μM, source data Fig 2B, 9.375 µM): 6.96
- Topo IV decatenation inhibition response ([3]; compound 37.5 μM, source data Fig 2B, 37.5 µM): 41.68 and 65.61
- Topo IV decatenation inhibition response ([3]; compound 75 μM, source data Fig 2B, 75 µM): 53.28 and 77.23
- Topo IV decatenation inhibition response ([3]; compound 150 μM, source data Fig 2B, 150 µM): 73.28
- inhibition at 0.293 µM ([3]; read-out: Topo IV decatenation inhibition response, P. aeruginosa topo IV, compound 0.293 μM, source data Fig 2B): 3.54%
- inhibition at 9.375 µM ([3]; read-out: Topo IV decatenation inhibition response, P. aeruginosa topo IV, compound 9.375 μM, source data Fig 2B): 4.24%
- inhibition at 150 µM ([3]; read-out: Topo IV decatenation inhibition response, P. aeruginosa topo IV, compound 150 μM, source data Fig 2B): 58.3%
- resistance frequency (E. coli ATCC 25922): 5 × 10^−9
- MIC increase of resistant colonies (A. baumannii ATCC 19606): 4- to 32 fold
- MIC90 against diverse global isolates (P. aeruginosa): 16 µg/mL (≈ 48.3 µM)
- MIC90 against diverse global isolates (A. baumannii): > 32 µg/mL
- Topo IV decatenation inhibition response (E. coli topoisomerase IV; compound 2.34375 μM, 2.34375 µM): 0
- Topo IV decatenation inhibition response (E. coli topoisomerase IV; compound 4.6875 μM, 4.6875 µM): 17.91 and 12.76
- inhibition at 4.6875 µM (E. coli topoisomerase IV; compound 4.6875 μM, read-out: Topo IV decatenation inhibition response): 12.2%
- Topo IV decatenation inhibition response (E. coli topoisomerase IV; compound 9.375 μM, 9.375 µM): 51.63 and 50.29
- inhibition at 9.375 µM (E. coli topoisomerase IV; compound 9.375 μM, read-out: Topo IV decatenation inhibition response): 43.7%
- Topo IV decatenation inhibition response (E. coli topoisomerase IV; compound 18.75 μM, 18.75 µM): 65.07 and 61.86
- inhibition at 18.75 µM (E. coli topoisomerase IV; compound 18.75 μM, read-out: Topo IV decatenation inhibition response): 76.9%
- Topo IV decatenation inhibition response (E. coli topoisomerase IV; compound 37.5 μM, 37.5 µM): 82.71 and 68.2 and 60.49
- Topo IV decatenation inhibition response (E. coli topoisomerase IV; compound 75 μM, 75 µM): 75.94 and 67.64
- inhibition at 75 µM (E. coli topoisomerase IV; compound 75 μM, read-out: Topo IV decatenation inhibition response): 84.2%
- Topo IV decatenation inhibition response (E. coli topoisomerase IV; compound 150 μM, 150 µM): 82.92 and 70.66 and 58.85

B1: 26-bp palindromic DNA homoduplex (dsDNA)
DNA 1: TTACGTTGTATGATCATACAACGTAA
DNA 2: TTACGTTGTATGATCATACAACGTAA
- binding result [4]: binds
